# Patent US6670391B2, “Benzopyran derivative and antiallergic agent” (Dainippon Ink and Chemicals, Inc., priority 2001, dated 2003)
# Read-outs that look alike come from different tables or passages of the source.
# Tested on: male Hartley guinea pigs actively sensitized with egg-white albumin
# Test: Antiallergic Test due to Antigen-Induced Immediate Type Airway Reaction and Delayed Type Airway Reaction
# Assay type: in vivo
# Settings: Cavia porcellus, po, 10 mg/kg orally once one hour before induction (prednisolone 10 mg/kg orally twice, 16 hours and 2 hours before)
# Method: Using an ultrasonic nebulizer (NE-U12, manufactured by OMRON Corporation), male Hartley guinea pigs (aged six weeks) were actively sensitized by consecutive 8-day inhalation of a 1 wt % physiological saline of egg-white albumin for 10 minutes a day. After one week passed since the final sensitization, an asthmatic disease state was induced by inhalation of a 2 wt % physiological saline of egg-white albumin for 5 minutes in the same manner. To inhibit the synthesis of endogenous steroid, metyrapone (10 mg/kg) was intravenously administered at 24 hours and one hour before the induction. To inhibit anaphylactic shock, pyrilamine (10 mg/kg) was intraperitoneally administered 30 minutes before inducing the asthmatic reaction.
# After inducing the asthmatic reaction, the airway resistance (specific airway resistance Raw) was measured for 1 minute before inducing the asthmatic reaction, and 1 minute, 2 hours, 4 hours, 5 hours, 6 hours, 7 hours, 8 hours, and 23-24 hours after inducing the asthmatic reaction, using an airway resistance measuring apparatus (Pulmos-I, manufactured by M.I.P.S.). An average value of the airway resistance was determined, and an airway resistance increase ratio with respect to the value of the airway resistance before the induction was calculated by the following Equation 1.
# Each of the test substances (10 mg/kg) listed in Table 1 was suspended in an aqueous 0.5% methyl cellulose solution, and the suspension was orally administered once one hour before inducing the asthmatic reaction. A positive control substance (prednisolone) was orally administered twice at a dosage of 10 mg/kg 16 hours and 2 hours before inducing the asthmatic reaction. The test was carried out on 8 animals per group.
# According to this test procedure, a two-phase increase in airway resistance was observed immediately after inducing the asthmatic reaction and after 4-8 hours passed since inducing the asthmatic reaction. In the present invention, the former increase in airway resistance is referred to as the immediate type asthmatic reaction, while the latter increase in airway resistance is referred to as the delayed type asthmatic reaction. With respect to the evaluation of the drug, for the immediate type asthmatic reaction, the inhibition percentage with respect to the asthmatic reaction inhibiting medium administration group (referring to the group wherein a test drug is not administered after inducing the asthmatic reaction, hereinafter merely referred to as the “medium administration group”) was determined by Equation 2 using the airway resistance increase ratio after one minute gas passed since the induction as an index.
# For the delayed type asthmatic reaction, the inhibition percentage with respect to the medium administration group was determined by the following Equation 3 using the area under the curve (AUC4-8) of the airway resistance increase ratio up to 4-8 hours after inducing the asthmatic reaction as an index. As an example, the relationship between the airway resistance increase ratio up to 4-8 hours after inducing the asthmatic reaction of the delayed type asthmatic reaction and time in the medium administration group, the prednisolone administration group, and the compound (216) administration group is shown in FIG. 1. As used herein, the area under the curve showing the relationship between the airway resistance increase ratio and time is (AUC4-8)
# Airway resistance increase ratio (%)=(airway resistance after inducing the asthmatic airway resistance−airway resistance before inducing the asthmatic reaction)/(airway resistance before inducing the asthmatic reaction)×100
# Inhibition (%)=(1−airway resistance increase ratio after one minute has passed since inducing the asthmatic reaction of the test substance administration group/airway resistance increase ratio after one minute has passed since inducing the asthmatic reaction of the medium administration group)×100 […]
# [1] = 1 min, airway resistance increase ratio one minute after induction vs medium administration group, read-out: Inhibition (%) against immediate type allergy
# [2] = AUC4-8 of airway resistance increase ratio 4-8 hours after induction vs medium administration group, read-out: Inhibition (%) against delayed type allergy
SMILES,inhibition in vivo at 10 mg/kg [1],inhibition in vivo at 10 mg/kg [2]
"COc1ccc2c(O)c(O)c(=O)oc2c1 [Comparative Compound (1), 3,4-dihydroxy-7-methoxy-2H-1-benzopyran-2-one, reference compound]",5.7%,21.9%
"CCCCCCCCCCOc1ccc2c(O)c(OC)c(=O)oc2c1 [Comparative Compound (2), 3-methoxy-4-hydroxy-7-decyloxy-2H-1-benzopyran-2-one, reference compound]",6.5%,20.2%
"CCCCCCCCCCOc1cccc2c(OCCCC)c(O)c(=O)oc12 [Comparative Compound (3), 3-hydroxy-4-butoxy-8-decyloxy-2H-1-benzopyran-2-one, reference compound]",5.2%,24.3%
"COc1ccc2c(O)c([C@@H]3O[C@H](CO)[C@@H](O)[C@H](O)[C@H]3O)c(=O)oc2c1 [Comparative Compound (4), 7-methoxy-4-hydroxy-3-(β-D-glucopyranosyl)-2H-1-benzopyran-2-one, reference compound]",4.7%,20.5%
"CCCCOc1ccc2c([C@@H]3O[C@H](CO)[C@@H](O)[C@H](O)[C@H]3O)c(O)c(=O)oc2c1 [Comparative Compound (5), 7-butoxy-3-hydroxy-4-(β-D-glucopyranosyl)-2H-1-benzopyran-2-one, reference compound]",6.8%,22.4%
"CCCCCCOc1c(O)c(=O)oc2cc([C@@H]3O[C@H](CO)[C@@H](O)[C@H](O)[C@H]3O)ccc12 [Comparative Compound (6), 3-hydroxy-4-hexyloxy-7-(β-D-glucopyranosyl)-2H-1-benzopyran-2-one, reference compound]",5.9%,24.1%
"CCCCCCOc1c(O)c2c(OCCO)cccc2oc1=O [Compound (8), 3-hexyloxy-4-hydroxy-5-(2-hydroxyethoxy)-2H-1-benzopyran-2-one]",14.1%,58.2%
"CCCCCCCCOc1c(O)c2c(OCCO)cccc2oc1=O [Compound (14), 3-octyloxy-4-hydroxy-5-(2-hydroxyethoxy)-2H-1-benzopyran-2-one]",32.4%,65.5%
"CCCCCCOc1c(O)c2c(OCCCO)cccc2oc1=O [Compound (29), 3-hexyloxy-4-hydroxy-5-(3-hydroxypropyloxy)-2H-1-benzopyran-2-one]",15.8%,60.9%
"CCCCCCOc1c(O)c2c(OCCC(O)CO)cccc2oc1=O (centres unmarked) [Compound (53), 3-hexyloxy-4-hydroxy-5-(3,4-dihydroxybutoxy)-2H-1-benzopyran-2-one]",19.3%,59.8%
"CCCCCCOc1c(O)c2c(OCC(=O)O)cccc2oc1=O [Compound (65), 3-hexyloxy-4-hydroxy-5-hydroxycarbonylmethoxy-2H-1-benzopyran-2-one]",21.5%,60.2%
"CC(C)=CCC/C(C)=C/COc1c(O)c2c(OCC(=O)O)cccc2oc1=O [Compound (81), 3-geranyloxy-4-hydroxy-5-hydroxycarbonylmethoxy-2H-1-benzopyran-2-one]",15.4%,54.1%
"CCCCCCOc1c(O)c2c(OCCCCC(=O)O)cccc2oc1=O [Compound (99), 3-hexyloxy-4-hydroxy-5-(4-hydroxycarbonylbutoxy)-2H-1-benzopyran-2-one]",14.6%,61.9%
"CCCCCCOc1c(O)c2cc(OCCO)ccc2oc1=O [Compound (109), 3-hexyloxy-4-hydroxy-6-(2-hydroxyethoxy)-2H-1-benzopyran-2-one]",14%,66.8%
"CCCCCCCCOc1c(O)c2cc(OCCO)ccc2oc1=O [Compound (115), 3-octyloxy-4-hydroxy-6-(2-hydroxyethoxy)-2H-1-benzopyran-2-one]",31.8%,61.7%
"CCOc1c(O)c2cc(OCCCCO)ccc2oc1=O [Compound (137), 3-ethoxy-4-hydroxy-6-(4-hydroxybutoxy)-2H-1-benzopyran-2-one]",8.3%,58.9%
"CCCCCCOc1c(O)c2cc(OCC(O)CO)ccc2oc1=O (centres unmarked) [Compound (147), 3-hexyloxy-4-hydroxy-6-(2,3-dihydroxypropyloxy)-2H-1-benzopyran-2-one]",19.1%,59.5%
"CCCCCCOc1c(O)c2cc(OCC(=O)O)ccc2oc1=O [Compound (166), 3-hexyloxy-4-hydroxy-6-hydroxycarbonylmethoxy-2H-1-benzopyran-2-one]",23.5%,64.1%
"CCCCCCC=COc1c(O)c2cc(OCCCCC(=O)O)ccc2oc1=O [Compound (202), 3-(1-octenyloxy)-4-hydroxy-6-(4-hydroxycarbonylbutoxy)-2H-1-benzopyran-2-one]",19.9%,57.8%
"CCCCOc1c(O)c2ccc(OCCO)cc2oc1=O [Compound (207), 3-butoxy-4-hydroxy-7-(2-hydroxyethoxy)-2H-1-benzopyran-2-one]",8.5%,71.7%
"CCCCCCOc1c(O)c2ccc(OCCO)cc2oc1=O [Compound (210), 3-hexyloxy-4-hydroxy-7-(2-hydroxyethoxy)-2H-1-benzopyran-2-one]",14.2%,71.4%
"CCCCCCCCOc1c(O)c2ccc(OCCO)cc2oc1=O [Compound (216), 3-octyloxy-4-hydroxy-7-(2-hydroxyethoxy)-2H-1-benzopyran-2-one]",38.8%,72.5%
"CC(C)=CCC/C(C)=C/COc1c(O)c2ccc(OCCO)cc2oc1=O [Compound (226), 3-geranyloxy-4-hydroxy-7-(2-hydroxyethoxy)-2H-1-benzopyran-2-one]",22.8%,61.5%
"CCCCCCCCOc1c(O)c2ccc(OCC(O)CO)cc2oc1=O (centres unmarked) [Compound (249), 3-octyloxy-4-hydroxy-7-(2,3-dihydroxypropyloxy)-2H-1-benzopyran-2-one]",28.8%,63.4%
"CCCCCCOc1c(O)c2ccc(OCC(=O)O)cc2oc1=O [Compound (267), 3-hexyloxy-4-hydroxy-7-hydroxycarbonylmethoxy-2H-1-benzopyran-2-one]",14%,62.2%
"CCCCCCCCOc1c(O)c2ccc(OCC(=O)O)cc2oc1=O [Compound (273), 3-octyloxy-4-hydroxy-7-hydroxycarbonylmethoxy-2H-1-benzopyran-2-one]",32.9%,64.5%
"CCCCCCOc1c(O)c2ccc(OCCC(=O)O)cc2oc1=O [Compound (288), 3-hexyloxy-4-hydroxy-7-(2-hydroxycarbonylethoxy)-2H-1-benzopyran-2-one]",13.4%,59.1%
"CCCCCCOc1c(O)c2cccc(OCCO)c2oc1=O [Compound (311), 3-hexyloxy-4-hydroxy-8-(2-hydroxyethoxy)-2H-1-benzopyran-2-one]",11.9%,55.4%
